Columns and labels:
Format in all cases: in vivo
[1] = system: sunflower (variety: Hybrid Sunflower); experiment: Effect of enhancing yield of sunflower seeds (field test, treatment after flowering); details: ALA hydrochloride 0.2 g/10a foliage x2, uniconazole P 0.3 g/10a, 7 days after flowering; for Number of filled seeds / Weight of filled seeds: empty seeds excluded
Procedure: A test field (red soil) was divided into 0.7 m^2 per compartment, and sunflower (variety: Hybrid Sunflower) was planted (6/9). A synthetic fertilizer was applied as a basal fertilizer such that N-P-K=5.0-5.0-5.0 kg/10 a (6/9). Four stocks were planted per test zone, and in the middle of growth, thinning was performed to make the test zone uniform so that there would be two stocks per test zone. Seven days after flowering, a Sumiseven P liquid preparation (containing 0.025% of uniconazole P) as an gibberellin biosynthesis inhibitor was used for treatment such that the amount of treatment of uniconazole P would be 0.3 […]) (8/20). Furthermore, a foliage treatment with 5-aminolevulic acid hydrochloride was performed at 0.2 […]), two times in total at the date of uniconazole P treatment (8/20) and 2 weeks after the uniconazole P treatment (9/3). As additional fertilization, a synthetic fertilizer was applied such that N-P-K=3.0-3.0-3.0 kg/10 a (7/8). After harvesting (9/16), the number and weight of seeds of each plant body were measured. This time, empty seeds without kernels were excluded. The test zone was provided as 6 test zones under each condition.

[2] = system: Turnip (variety: Honami); experiment: Comparative Example: combined treatment during seedling growth, turnip yield (field test); details: ALA hydrochloride 0.2 g/10a; prohexadione calcium salt 20 g/10a; 7 days before initiation of enlargement (seedling growth)
Procedure: Turnip (variety: […] At this time, a synthetic fertilizer was applied as a basal fertilizer such that N-P-K=5-5-5 kg/10 a. Four stocks were planted per test zone, and 4 test zones were set up randomly for one condition so as not to be affected by the place. […] After harvesting (11/12), the weights of the aerial part and the terrestrial part of the plant body were measured.

[3] = system: rice (variety: Koshihikari); experiment: Effect of enhancing yield of rice (pot test, treatment after ear emergence); details: for Number of ears per stock / Number of rice grains per ear / Weight of thousand grains / Ripening rate: ALA hydrochloride 0.1 g/10 a foliage x3, prohexadione calcium salt 0.4 g/10 a, 3 days after ear emergence; for Ripening rate: number of rice grains having specific gravity of 1.06 or more/number of total rice grains x100, in %; for Yield of rice per stock: product of ears per stock, grains per ear, ripening rate and thousand-grain weight, ALA hydrochloride 0.1 g/10 a, prohexadione calcium salt 0.4 g/10 a
Procedure: Seeds of rice (variety: Koshihikari) were sterilized with 70% ethanol, and rice seeds heavier than a specific gravity of 1.13 were screened by brine washing. Water absorption for one night at 30° C. and germination for one night were carried out, and then the seeds were sowed in a seedling box (4/11). A certain amount of kuroboku soil was placed in a 15-L Polybucket (1/17500×10 a), a synthetic fertilizer was mixed therein as a basal fertilizer such that N-P-K=5-5-5 kg/10 a, and water was drawn in to a water depth of 3 cm. Grown seedlings were planted at 3 stocks per bucket (5/15). […] Furthermore, 5-aminolevulic acid (ALA) hydrochloride was used for a foliage treatment for three times (8/14, 8/30, 9/10) at 0.1 […]). Four buckets were used for one test zone, and the buckets were placed randomly so as not to be affected by the place.

[4] = system: barley; experiment: Effect of enhancing yield of barley grains (pot test, treatment around ear emergence)
Procedure: A certain amount of kuroboku soil was placed in a 15-L Polybucket (1/17500×10 a), a liquid fertilizer Hyponica was applied as a basal fertilizer such that N-P-K=5.0-2.8-8.5 kg/10 a, and barley was sowed (11/3). Five stocks of seedlings were planted per bucket, and in the middle of growth, thinning was performed to make the test zone uniform so that there would be 3 stocks per bucket. Five days before ear emergence (4/15), prohexadione calcium salt was used as an gibberellin biosynthesis inhibitor to treat at 7.0, 3.5 […]) (4/10). Furthermore, a treatment with 5-aminolevulic acid hydrochloride was performed at 0.15 […]) under the conditions of performing a foliage treatment each time at the respective times of before (4/3), simultaneously with (4/10) and after (5/8) the treatment with prohexadione calcium salt. […] Four buckets were used per test zone.

[5] = system: radish (variety: Red Chime); experiment: Effect of enhancing yield of radish hypocotyl (pot test); details: ALA hydrochloride 0.1 g/10a foliage 6 days after prohexadione; prohexadione calcium salt 15 g/10a, 10 days after initiation of hypocotyl enlargement
Procedure: A certain amount of kuroboku soil was placed in a No. 6 pot (1/75000×10 a), and radish (variety: Red Chime) was planted (5/4). A liquid fertilizer Hyponica was applied as a basal fertilizer such that N-P-K=5.0-2.8-8.5 kg/10 a (5/8). Five stocks were planted per pot, and in the middle of growth, thinning was performed to make the test zone uniform so that there would be 3 stocks per pot. Ten days after the initiation of hypocotyl enlargement, prohexadione calcium salt was used as an gibberellin biosynthesis inhibitor to treat at 15 […]) (5/27). Furthermore, a treatment with 5-aminolevulic acid hydrochloride was performed at 0.1 […]) under the conditions of performing a foliage treatment (6/2) six days after the treatment with prohexadione calcium salt. […] Seven pots were used per test zone.

## Cl.NCC(=O)CCC(=O)O [ALA hydrochloride, 5-aminolevulic acid hydrochloride]
[1]
  Live weight of plant body: 1.68 kg/stock
  Number of filled seeds: 1348 seeds/stock
  Weight of filled seeds: 120.5 g/stock
[2]
  Weight of aerial part: 0.368 kg/stock
  Weight of terrestrial part: 0.725 kg/stock
[3]
  Number of ears per stock: 20.2
  Number of rice grains per ear: 80.12
  Weight of thousand grains: 21.9 g
  Ripening rate: 88.71
  Yield of rice per stock: 31.4 g
[4]; ALA hydrochloride 0.15 g.a.i/10 a at the time 7 days before prohexadione calcium salt treatment (4/3), prohexadione calcium salt none
  Weight of grains per stock: 6.59 g
[4]; ALA hydrochloride 0.15 g.a.i/10 a at the time 28 days after prohexadione calcium salt treatment (5/8), prohexadione calcium salt none
  Weight of grains per stock: 6.45 g
[4]; ALA hydrochloride 0.15 g.a.i/10 a at the time simultaneous with prohexadione calcium salt treatment (4/10), prohexadione calcium salt none
  Weight of grains per stock: 6.83 g
[5]
  Fresh weight of hypocotyl: 12.2 g

## CCC(=O)C1=C([O-])CC(C(=O)[O-])CC1=O.[Ca+2] (stereo not drawn) [Prohexadione calcium salt, calcium 3-oxido-5-oxo-4-propionyl-3-cyclohexene carboxylate]
[2]
  Weight of aerial part: 0.349 kg/stock
  Weight of terrestrial part: 0.641 kg/stock
[3]
  Number of ears per stock: 20.2
  Number of rice grains per ear: 80.35
  Weight of thousand grains: 22.22 g
  Ripening rate: 86.09
  Yield of rice per stock: 31.0 g
[4]; ALA hydrochloride none, prohexadione calcium salt 3.5 g.a.i/10 a, 5 days before ear emergence
  Weight of grains per stock: 6.23 g
[4]; ALA hydrochloride none, prohexadione calcium salt 7 g.a.i/10 a, 5 days before ear emergence
  Weight of grains per stock: 6.60 g
[5]
  Fresh weight of hypocotyl: 10.3 g

## CC(C)(C)[C@H](O)/C(=C\c1ccc(Cl)cc1)n1cncn1 [Uniconazole P, (E)-(S)-1-(4-chlorophenyl)-4,4-dimethyl-2-(1H-1,2,4-triazol-1-yl)pent-1-en-3-ol]
[1]
  Live weight of plant body: 1.96 kg/stock
  Number of filled seeds: 1377 seeds/stock
  Weight of filled seeds: 126.3 g/stock
